{
  "source": "patent US9248196B2",
  "about": "“Rebamipide complexes and cocrystals” (NUFORMIX LIMITED, priority 2011, dated 2016)",
  "origin": "cited, not measured here",
  "note": "Like-named read-outs stand apart in the source and are kept apart here.",
  "data": [
    {"smiles": "O=C(NC(Cc1cc(=O)[nH]c2ccccc12)C(=O)O)c1ccc(Cl)cc1", "note": "(stereo not drawn) [Rebamipide, 2-(4-chlorobenzamido)-3-(2-oxo-1,2-dihydroquinolin-4-yl)propanoic acid]", "values": [
      {"measurement": "solubility", "setting": "in ethanol", "value": "very slightly soluble"},
      {"measurement": "solubility", "setting": "in methanol", "value": "very slightly soluble"},
      {"measurement": "solubility", "setting": "in water", "value": "practically insoluble"}
    ]}
  ]
}
